The source of these data is patent US9738664B2, “Boronic acid inhibitors of HIV protease” (WISCONSIN ALUMNI RESEARCH FOUNDATION, priority 2014, dated 2017).

The target of one data set is T1, HIV-1 protease (Human immunodeficiency virus type 1 group M subtype B, UniProt P03367, C567A/C595A/L533I/L563I/Q507K).
T1 construct: Double-stranded, linear DNA encoding HIV-1 protease; 8xHis (self-cleavable) (N, cleaved yes); made in house
In words: biochemical.

The test system of the next data set is HIV. Description: Inhibition of HIV cytopathic toxicity in MT-4 cells (MTS cell viability). Format: cell-based. The following applies: virus from pNL4-3 at 100×TCID50, 7 days, MTS assay (FIG. 3). On the procedure:
The ability of B-darunavir to inhibit the cytopathic toxicity of HIV was determined by standard methods (11). Briefly, both human lymphocyte cell line MT-4 and plasmid pNL4-3, which directs the production of infectious virions (12), were obtained from the NIH AIDS Reagent Program. […] Then, MT-4 cells were transfected with plasmid pNL4-3. Maximal virus production was detected on Day 6 post-transfection. Viral inhibition assays were conducted with 25,000 MT-4 cells in 200 μL of RPMI medium containing fetal bovine serum (10% v/v). Infections were conducted with virus at 100×TCID50 by resuspending pelleted cells in 500 μL of virus-containing medium and incubating for 4 h prior to plating with B-darunavir. After 7 days, the loss of HIV cytopathic toxicity was assessed by measuring cell viability using the MTS assay from Promega (Madison, Wis.).

The next data set deals with MT-4 cells. Description: Toxicity for MT-4 cells (growth inhibition). Format: cell-based, human. The following applies: concentrations up to 1 mM.

A value given as a limit tells only on which side of the number the result lay.

Experimental for HIV-1 protease: This peptide was used as a fluorogenic substrate for HIV protease by monitoring the fluorescence of the Edans group (5-((2-aminoethyl)amino)naphthalene-1-sulfonic acid) upon substrate hydrolysis and separation from the quenching Dabcyl group (4-((4-(dimethylamino)phenyl)azo)benzoic acid, succinimidyl ester. [6] Substrate was dissolved at 1 mM by sonication in DMF containing TFA (0.1% v/v). Stock solutions of each putative HIV protease inhibitor were generated by dissolving the inhibitor in DMF to a concentration of 50 mM and diluting in DMF to ˜100×stocks of the final assay concentrations. Assays were performed in 50 mM sodium acetate buffer, pH 5.0, containing NaCl (100 mM). Wells in a microtiter plate were charged initially with inhibitor (various concentrations) and substrate (final concentration: 10 μM). HIV protease was then added (final concentration: 50-150 μM). Reaction velocities in the assay solutions (total volume: 200 μL) were measured in quadruplicate at 7-9 inhibitor concentrations including no-inhibitor and no-enzyme controls.

Regarding `CC(C)CN(C[C@@H](O)[C@H](Cc1ccccc1)NC(=O)O[C@H]1CCOC1)S(=O)(=O)c1ccc(B(O)O)cc1` [B-Amprenavir (6)], at HIV-1 protease, affinity was put at a Ki of 2.1 ± 0.3 pM. As for `CC(C)CN(C[C@@H](O)[C@H](Cc1ccccc1)NC(=O)O[C@H]1CO[C@H]2OCC[C@H]21)S(=O)(=O)c1ccc(B(O)O)cc1` [B-Darunavir (9)], in the data set with HIV, the “concentration that inhibits the toxicity of HIV for human lymphocytes” value was ≥ 100 nM. Moreover, the “inhibition of the growth of MT-4 cells (toxicity)” value in the data set on MT-4 cells is “not to cause a significant inhibition of the growth of MT-4 cells”.
